Earlier results in patent US8148390B2, “Monocyclic anilide spirolactam CGRP receptor antagonists” (Merck, Sharp & Dohme, Corp., priority 2007, dated 2012).
Read-outs that look alike come from different tables or passages of the source. Ends that are not written are not given here.

How the values were obtained:
middle meningeal artery = details: rats, electrical stimulation of the dura mater, prior administration (Williamson et al. 1997)
facial blood flow [1] = details: rat, trigeminal ganglion stimulation (Escott et al. 1995)
[2] = system: acute attacks of migraine; details: clinical trials (Olesen et al. 2004)
[3] = system: headache induced by CGRP infusion; details: control group (Petersen et al. 2005)
facial blood flow [4] = details: marmoset, electrical stimulation of the trigeminal ganglion (Doods et al. 2000)

Row | Molecule | effect on increase of middle meningeal artery diameter (middle meningeal artery) | effect on increase of facial blood flow (facial blood flow [1]) | efficacy in treating acute attacks of migraine [2] | prevention of headache induced by CGRP infusion [3] | effect on increase of facial blood flow (facial blood flow [4])
1 | CGRP(8-37): a peptide CGRP antagonist; fragment of CGRP that lacks seven N-terminal amino acid residues (VTHRLAGLLSRSGGVVKNNFVPTNVGSKAF; ends and bridges not checked; UniProt P06881 90-119, looked up, fragment) | blocked | inhibited |  |  | 
2 | NCCCC[C@H](NC(=O)[C@@H](Cc1cc(Br)c(O)c(Br)c1)NC(=O)N1CCC(N2Cc3ccccc3NC2=O)CC1)C(=O)N1CCN(c2ccncc2)CC1 [BIBN4096BS] |  |  | effective in treating acute attacks of migraine | able to prevent headache induced by CGRP infusion | could be blocked
